# The source made the active and inactive calls.
# Experiments:
# [1] = molecular target: Induced myeloid leukemia cell differentiation protein Mcl-1 (Homo sapiens, UniProt Q07820); assay type: functional
# [2] = molecular target: T1, Replicative DNA helicase DnaB (Mycobacterium tuberculosis, UniProt P9WMR3); experiment: DnaB intein splicing inhibitors, dose response, biochemical, cell-free fluorescence (AID 449749); assay type: functional
# T1 sequence (P9WMR3 whole entry): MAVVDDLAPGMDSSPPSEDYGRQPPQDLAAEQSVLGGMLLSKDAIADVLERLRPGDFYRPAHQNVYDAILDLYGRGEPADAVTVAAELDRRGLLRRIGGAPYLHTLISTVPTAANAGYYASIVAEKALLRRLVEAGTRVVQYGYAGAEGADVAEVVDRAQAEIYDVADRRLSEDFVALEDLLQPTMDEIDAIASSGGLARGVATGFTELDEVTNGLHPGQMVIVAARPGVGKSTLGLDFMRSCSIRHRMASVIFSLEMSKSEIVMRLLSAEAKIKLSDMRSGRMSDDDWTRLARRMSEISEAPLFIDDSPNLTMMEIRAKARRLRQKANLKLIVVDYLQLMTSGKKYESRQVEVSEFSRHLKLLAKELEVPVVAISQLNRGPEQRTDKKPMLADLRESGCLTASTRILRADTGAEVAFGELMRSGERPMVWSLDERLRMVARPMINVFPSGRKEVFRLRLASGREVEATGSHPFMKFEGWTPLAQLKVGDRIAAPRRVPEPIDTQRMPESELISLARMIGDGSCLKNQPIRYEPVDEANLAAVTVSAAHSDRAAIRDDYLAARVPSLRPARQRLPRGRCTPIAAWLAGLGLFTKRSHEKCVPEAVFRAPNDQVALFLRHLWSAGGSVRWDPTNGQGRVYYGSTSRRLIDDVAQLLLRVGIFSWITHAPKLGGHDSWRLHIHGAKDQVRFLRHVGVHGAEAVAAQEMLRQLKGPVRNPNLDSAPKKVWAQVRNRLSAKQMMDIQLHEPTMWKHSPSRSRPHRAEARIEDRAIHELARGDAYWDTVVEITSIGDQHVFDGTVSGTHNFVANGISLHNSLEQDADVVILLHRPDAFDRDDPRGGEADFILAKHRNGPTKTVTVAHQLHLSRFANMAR
# Protein RecA = molecular target: T2, Protein RecA (Mycobacterium tuberculosis, UniProt P9WHJ3); experiment: Fluorescence Cell-Free Homogeneous Dose Retest to Identify Inhibitors of RecA-Intein Splicing Activity. [Related pubchem assays (depositor defined):AID2097, AID2223, AID489010, AID492950]; assay type: functional
# T2 sequence (P9WHJ3 whole entry): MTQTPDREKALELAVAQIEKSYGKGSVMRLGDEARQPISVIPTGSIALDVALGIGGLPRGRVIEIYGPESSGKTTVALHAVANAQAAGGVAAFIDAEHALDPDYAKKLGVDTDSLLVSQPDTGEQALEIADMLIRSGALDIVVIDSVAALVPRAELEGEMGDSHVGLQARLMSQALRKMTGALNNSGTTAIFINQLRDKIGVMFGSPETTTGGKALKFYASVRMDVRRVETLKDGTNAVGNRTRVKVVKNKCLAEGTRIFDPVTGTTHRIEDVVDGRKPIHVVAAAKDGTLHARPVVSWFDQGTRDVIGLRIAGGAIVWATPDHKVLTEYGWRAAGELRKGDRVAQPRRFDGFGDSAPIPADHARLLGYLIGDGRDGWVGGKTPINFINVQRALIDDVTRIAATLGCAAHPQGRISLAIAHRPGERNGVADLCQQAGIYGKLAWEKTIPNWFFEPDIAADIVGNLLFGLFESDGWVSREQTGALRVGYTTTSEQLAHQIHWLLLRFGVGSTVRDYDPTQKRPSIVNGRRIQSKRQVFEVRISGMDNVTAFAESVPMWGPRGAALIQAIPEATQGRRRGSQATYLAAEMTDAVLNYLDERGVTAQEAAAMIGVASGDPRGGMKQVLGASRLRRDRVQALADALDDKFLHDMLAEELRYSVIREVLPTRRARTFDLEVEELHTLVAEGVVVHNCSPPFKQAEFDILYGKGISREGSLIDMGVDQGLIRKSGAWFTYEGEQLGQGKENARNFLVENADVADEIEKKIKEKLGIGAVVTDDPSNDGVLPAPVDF
# [3] = luciferase reporter signal suppression in cells – H4 neuroglioma cells, luminescence, dose response (AID 1990); assay type: functional, cell-based
# [4] = molecular target: Luciferin 4-monooxygenase (Photinus pyralis, UniProt P08659); experiment: Counter Screen for Luciferase-based Assay Positives. [Related pubchem assays: 620, 618, 411 ]
# Sequence of Luciferin 4-monooxygenase (P08659 whole entry): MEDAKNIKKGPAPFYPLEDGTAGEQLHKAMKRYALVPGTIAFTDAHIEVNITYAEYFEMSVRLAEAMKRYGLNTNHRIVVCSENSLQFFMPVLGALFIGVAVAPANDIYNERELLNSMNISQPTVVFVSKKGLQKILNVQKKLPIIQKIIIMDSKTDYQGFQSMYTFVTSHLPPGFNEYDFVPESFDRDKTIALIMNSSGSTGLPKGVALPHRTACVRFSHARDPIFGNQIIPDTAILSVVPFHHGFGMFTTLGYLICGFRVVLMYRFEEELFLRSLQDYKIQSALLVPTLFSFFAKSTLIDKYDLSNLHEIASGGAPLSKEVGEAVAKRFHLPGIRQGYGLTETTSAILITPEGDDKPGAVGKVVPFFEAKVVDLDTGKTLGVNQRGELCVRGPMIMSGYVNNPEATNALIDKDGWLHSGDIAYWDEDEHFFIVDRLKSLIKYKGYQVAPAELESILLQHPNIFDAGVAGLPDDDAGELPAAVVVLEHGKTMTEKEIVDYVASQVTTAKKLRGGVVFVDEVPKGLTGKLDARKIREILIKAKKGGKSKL
# [5] = Luminescence Cell-Based Dose Response HTS to Identify Inhibitors of 5'UTR Stem-Loop Driven Prion Protein mRNA Translation in H4 Neuroglioblastoma Cells. [Related pubchem assays: 1827 (Project Summary), 1813 (Primary HTS)]; assay type: functional
# [6] = molecular target: T3, Heat shock factor protein 1 (Mus musculus, UniProt P38532); experiment: decrease of HSF1-responsive luciferase luminescence – cell-based, NIH3T3, dose retest, confirmation (AID 2382); assay type: functional;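 note: NIH3T3 fibroblasts with HSF1-driven luciferase reporter stressed by proteasome inhibitor MG132; luminescence from HSF1-driven luciferase expression after 8 hours of MG132 stress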
# T3 sequence (P38532 whole entry): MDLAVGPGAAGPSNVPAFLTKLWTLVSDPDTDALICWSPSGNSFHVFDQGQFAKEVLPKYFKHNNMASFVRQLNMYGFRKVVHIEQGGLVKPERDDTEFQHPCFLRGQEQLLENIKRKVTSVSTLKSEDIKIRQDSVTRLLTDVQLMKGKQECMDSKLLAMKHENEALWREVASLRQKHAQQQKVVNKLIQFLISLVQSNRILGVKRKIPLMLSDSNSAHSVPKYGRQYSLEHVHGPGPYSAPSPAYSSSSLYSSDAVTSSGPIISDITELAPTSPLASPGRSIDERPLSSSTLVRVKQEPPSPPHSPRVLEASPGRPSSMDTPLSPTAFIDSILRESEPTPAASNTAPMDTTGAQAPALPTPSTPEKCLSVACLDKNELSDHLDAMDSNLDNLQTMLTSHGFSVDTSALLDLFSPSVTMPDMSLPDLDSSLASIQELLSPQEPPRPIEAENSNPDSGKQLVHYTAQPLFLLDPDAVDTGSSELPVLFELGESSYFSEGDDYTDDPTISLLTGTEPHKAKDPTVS
# [7] = alpha-synuclein stem-loop luciferase translation blockers – H4 neuroglioma cells, luminescence, confirmation (AID 1988); assay type: functional, cell-based
# HT-1080 = experiment: HT1080 cell viability loss – fluorescence readout (AID 620); assay type: functional, cell-based; settings: Homo sapiens
# [8] = molecular target: T4, Rac GTPase-activating protein 1 (Homo sapiens, UniProt Q9H0H5); experiment: blockers of MgcRacGAP-driven Rac1 GTP hydrolysis – biochemical, ADP Hunter fluorescence, primary and confirmatory, confirmation (AID 624330); assay type: functional
# T4 sequence (Q9H0H5 whole entry): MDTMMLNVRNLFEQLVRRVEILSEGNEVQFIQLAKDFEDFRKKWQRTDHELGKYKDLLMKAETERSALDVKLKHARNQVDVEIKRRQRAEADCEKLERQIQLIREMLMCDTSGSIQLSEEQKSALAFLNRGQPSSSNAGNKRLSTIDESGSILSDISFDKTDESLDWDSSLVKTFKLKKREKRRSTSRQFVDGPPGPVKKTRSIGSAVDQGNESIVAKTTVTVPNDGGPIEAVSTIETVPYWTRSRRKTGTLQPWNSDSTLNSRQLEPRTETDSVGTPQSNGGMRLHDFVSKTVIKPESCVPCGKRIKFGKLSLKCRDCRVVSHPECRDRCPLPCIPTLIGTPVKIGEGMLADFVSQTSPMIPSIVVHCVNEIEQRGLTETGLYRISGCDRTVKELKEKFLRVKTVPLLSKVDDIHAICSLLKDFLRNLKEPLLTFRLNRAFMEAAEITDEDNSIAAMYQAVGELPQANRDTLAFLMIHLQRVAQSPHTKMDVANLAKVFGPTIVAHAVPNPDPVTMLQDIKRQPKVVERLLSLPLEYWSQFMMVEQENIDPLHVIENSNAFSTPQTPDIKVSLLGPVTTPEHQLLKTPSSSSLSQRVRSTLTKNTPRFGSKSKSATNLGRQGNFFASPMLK
# [9] = molecular target: Heat shock protein HSP 90-alpha (Homo sapiens, UniProt P07900); assay type: functional, organism-based
# Fatty acid synthase [10] = molecular target: T5, Fatty acid synthase (Homo sapiens, UniProt P49327); experiment: inhibition of human FAS-TE enzyme activity – biochemical, endpoint fluorescence intensity, uHTS hits, dose response (AID 624327); assay type: functional;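 note: fluorescence from hydrolysis of an O-methyl fluorescein acyl ester substrate by the enzyme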
# T5 sequence (P49327 whole entry): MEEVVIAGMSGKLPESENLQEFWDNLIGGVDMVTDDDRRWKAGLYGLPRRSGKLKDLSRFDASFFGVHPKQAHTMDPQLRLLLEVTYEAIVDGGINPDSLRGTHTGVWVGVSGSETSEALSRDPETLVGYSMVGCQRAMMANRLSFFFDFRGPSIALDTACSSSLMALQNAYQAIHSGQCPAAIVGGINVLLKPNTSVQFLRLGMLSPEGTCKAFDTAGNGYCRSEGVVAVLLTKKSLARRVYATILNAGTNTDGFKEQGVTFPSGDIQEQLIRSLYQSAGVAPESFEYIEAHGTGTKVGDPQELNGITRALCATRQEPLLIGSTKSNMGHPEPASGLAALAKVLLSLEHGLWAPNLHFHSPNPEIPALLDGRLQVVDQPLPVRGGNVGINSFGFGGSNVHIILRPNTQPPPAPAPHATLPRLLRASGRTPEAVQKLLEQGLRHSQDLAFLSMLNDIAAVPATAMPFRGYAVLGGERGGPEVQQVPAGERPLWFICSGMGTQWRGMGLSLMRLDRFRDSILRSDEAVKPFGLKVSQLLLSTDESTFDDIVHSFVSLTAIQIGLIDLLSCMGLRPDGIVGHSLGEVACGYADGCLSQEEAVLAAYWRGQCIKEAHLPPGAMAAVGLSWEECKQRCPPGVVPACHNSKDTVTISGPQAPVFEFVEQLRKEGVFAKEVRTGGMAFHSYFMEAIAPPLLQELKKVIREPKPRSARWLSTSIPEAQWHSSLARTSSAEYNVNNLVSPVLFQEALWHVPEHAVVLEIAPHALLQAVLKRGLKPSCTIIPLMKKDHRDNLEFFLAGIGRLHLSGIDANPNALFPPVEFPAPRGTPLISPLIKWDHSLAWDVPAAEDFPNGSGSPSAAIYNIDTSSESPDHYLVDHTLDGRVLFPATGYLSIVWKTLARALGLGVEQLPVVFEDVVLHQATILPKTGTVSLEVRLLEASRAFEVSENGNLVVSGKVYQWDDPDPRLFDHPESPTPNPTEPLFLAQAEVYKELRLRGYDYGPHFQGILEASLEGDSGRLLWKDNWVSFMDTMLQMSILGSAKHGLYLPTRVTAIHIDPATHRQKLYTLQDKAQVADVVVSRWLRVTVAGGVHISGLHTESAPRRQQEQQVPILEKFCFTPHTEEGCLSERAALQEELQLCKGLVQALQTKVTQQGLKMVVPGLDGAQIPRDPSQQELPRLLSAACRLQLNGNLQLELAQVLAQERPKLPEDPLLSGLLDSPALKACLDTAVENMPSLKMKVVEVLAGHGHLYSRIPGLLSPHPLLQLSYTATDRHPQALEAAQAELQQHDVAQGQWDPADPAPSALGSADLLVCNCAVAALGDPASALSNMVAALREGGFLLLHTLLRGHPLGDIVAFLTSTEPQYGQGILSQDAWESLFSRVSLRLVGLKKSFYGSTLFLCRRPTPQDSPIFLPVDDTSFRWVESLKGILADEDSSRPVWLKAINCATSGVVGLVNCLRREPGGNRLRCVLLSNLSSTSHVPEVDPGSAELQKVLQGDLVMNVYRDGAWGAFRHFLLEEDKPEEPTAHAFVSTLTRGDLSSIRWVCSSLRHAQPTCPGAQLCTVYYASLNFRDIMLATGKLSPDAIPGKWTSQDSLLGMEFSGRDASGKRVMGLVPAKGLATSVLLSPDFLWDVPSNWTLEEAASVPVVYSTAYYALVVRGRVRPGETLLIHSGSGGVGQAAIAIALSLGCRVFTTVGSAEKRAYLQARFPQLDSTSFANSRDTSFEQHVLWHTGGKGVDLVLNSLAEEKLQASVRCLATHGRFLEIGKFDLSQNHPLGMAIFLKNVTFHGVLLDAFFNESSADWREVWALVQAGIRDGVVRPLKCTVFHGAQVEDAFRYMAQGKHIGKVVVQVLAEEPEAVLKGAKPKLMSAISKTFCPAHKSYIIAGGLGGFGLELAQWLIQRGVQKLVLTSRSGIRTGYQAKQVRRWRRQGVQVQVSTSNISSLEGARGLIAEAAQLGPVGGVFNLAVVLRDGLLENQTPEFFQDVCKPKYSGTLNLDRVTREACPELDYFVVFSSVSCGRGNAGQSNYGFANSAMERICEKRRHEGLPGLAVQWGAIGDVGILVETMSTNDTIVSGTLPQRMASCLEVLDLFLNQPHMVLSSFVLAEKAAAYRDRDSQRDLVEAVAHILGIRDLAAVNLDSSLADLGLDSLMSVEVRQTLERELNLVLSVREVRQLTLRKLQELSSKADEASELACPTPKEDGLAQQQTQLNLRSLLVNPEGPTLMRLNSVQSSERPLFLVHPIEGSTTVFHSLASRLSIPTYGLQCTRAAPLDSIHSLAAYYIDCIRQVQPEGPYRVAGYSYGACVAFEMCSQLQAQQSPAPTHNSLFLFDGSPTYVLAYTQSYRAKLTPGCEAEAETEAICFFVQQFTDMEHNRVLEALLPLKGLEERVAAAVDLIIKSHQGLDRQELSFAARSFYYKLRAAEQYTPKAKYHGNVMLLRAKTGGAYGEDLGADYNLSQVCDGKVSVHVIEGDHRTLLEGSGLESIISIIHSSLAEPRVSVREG
# Fatty acid synthase [11] = molecular target: T5, Fatty acid synthase; experiment: inhibition of human FAS-TE enzyme activity – biochemical, kinetic fluorescence intensity, dose response (AID 624326); assay type: functional;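 note: rate of fluorescence rise from hydrolysis of a fluorogenic O-methyl fluorescein ester substrate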
# Estrogen receptor = molecular target: T6, Estrogen receptor (Homo sapiens, UniProt P03372);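 note: potency for inhibiting coactivator peptide recruitment to the receptor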
# T6 sequence (P03372 whole entry): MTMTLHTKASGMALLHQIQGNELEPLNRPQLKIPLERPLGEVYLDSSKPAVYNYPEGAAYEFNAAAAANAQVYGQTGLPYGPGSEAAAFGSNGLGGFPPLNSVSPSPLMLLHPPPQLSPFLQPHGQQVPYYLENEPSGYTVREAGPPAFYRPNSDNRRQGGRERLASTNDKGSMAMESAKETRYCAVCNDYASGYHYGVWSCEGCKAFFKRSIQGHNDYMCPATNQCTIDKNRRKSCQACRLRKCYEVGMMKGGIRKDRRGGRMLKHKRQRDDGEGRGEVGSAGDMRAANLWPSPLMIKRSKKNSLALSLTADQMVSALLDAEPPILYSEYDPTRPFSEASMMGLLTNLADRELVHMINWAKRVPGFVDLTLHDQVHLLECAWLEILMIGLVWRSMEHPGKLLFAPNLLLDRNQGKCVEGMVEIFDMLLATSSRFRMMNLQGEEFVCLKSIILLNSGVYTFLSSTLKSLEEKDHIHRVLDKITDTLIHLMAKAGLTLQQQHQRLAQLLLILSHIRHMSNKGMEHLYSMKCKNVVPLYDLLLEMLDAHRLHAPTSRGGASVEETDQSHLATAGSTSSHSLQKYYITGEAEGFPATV
# [12] = Trypanosoma cruzi growth suppression in host cells – NIH3T3 host cells, beta-gal luminescence, confirmation (AID 2044); assay type: functional, cell-based;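 note: intracellular parasites grown in NIH/3T3 mouse fibroblasts as host cells; luminescent beta-galactosidase reporter signal from transgenic T. cruzi replicating inside host cells; inhibitors lower the luminescence signal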
# [13] = NIH3T3 cell viability loss – ATP luminescence, mouse fibroblasts, counter-screen, dose response (AID 2010); assay type: functional, cell-based;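 note: cells exposed to compound for about 90 hours before reading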
# [14] = blockers of bursicon-stimulated LGR2 cAMP reporter – cell-based, HEK293, CRE-luciferase reporter, cherry pick, set 2, dose response (AID 743343); assay type: functional;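 note: transfected cells were stimulated with diluted bursicon conditioned medium after compound addition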
# [15] = blockade of melanocortin 4 receptor signaling – cell-based, plate reader, cherry pick, counter-screen for LGR2 antagonist project, dose response (AID 743444); assay type: functional;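 note: transfected HEK 293 cells stimulated with alpha-MSH peptide; potency of inhibitors of the alpha-MSH evoked signal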
# [16] = blockers of HIV-1 envelope-mediated cell-cell fusion – cherry-pick, dose response (AID 652057); assay type: functional, cell-based
# [17] = blockers of HIV-1 ZM109 envelope-driven cell-cell fusion – HeLa effector, CEM target cells, luciferase, cherry-pick, dose response (AID 652058); assay type: functional, cell-based;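 note: luciferase signal from HIV-1 Env mediated cell-cell fusion of effector and target cells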
# [18] = HIV-1 AD8 envelope cell-cell fusion blockers – cherry-pick, dose response (AID 652062); assay type: functional, cell-based;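 note: luciferase signal from cell-cell fusion driven by HIV-1 clade B AD8 Env; potency is for inhibitors of fusion seen as a drop in luminescence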
# Sequence of Induced myeloid leukemia cell differentiation protein Mcl-1 (Q07820 whole entry): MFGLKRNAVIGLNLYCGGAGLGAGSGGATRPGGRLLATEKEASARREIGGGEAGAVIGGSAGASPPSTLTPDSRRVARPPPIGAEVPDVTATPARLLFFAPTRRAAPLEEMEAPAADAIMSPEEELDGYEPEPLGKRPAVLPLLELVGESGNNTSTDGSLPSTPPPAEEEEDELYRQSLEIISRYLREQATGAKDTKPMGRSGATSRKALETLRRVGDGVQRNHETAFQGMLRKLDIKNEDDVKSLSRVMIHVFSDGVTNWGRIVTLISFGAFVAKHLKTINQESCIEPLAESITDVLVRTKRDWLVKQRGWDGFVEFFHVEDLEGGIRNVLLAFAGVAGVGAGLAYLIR
smiles,measurement,setting,value
CCC(=O)N(CC)C1=C(O)C(=O)c2ccccc2C1=O,IC50,[1],1.44 µM (active)
same,AC50,[2],14.5 µM (active)
same,EC50,Protein RecA,8.5 µM (active)
O=C(O)CCSc1nnc(-c2ccc3c(c2)OCO3)o1,EC50,[3],8.07 µM (active)
same,EC50,[4],27.7 µM (active)
same,EC50,[5],> 120 µM (not active)
same,EC50,[6],3.01 µM (active)
same,EC50,[7],10.6 µM (active)
same,EC50,HT-1080,> 50 µM (not active)
Cc1ccc(N2CC(C(=O)Nc3ccc(N(C)C)cc3)CC2=O)cc1C (centres undefined),IC50,[1],3.29 µM (not active)
same,IC50,[8],54.2 µM (active)
CCOc1ccc(C(=O)Nc2cc(NC(=O)c3ccc(OCC)c(Cl)c3)cc(C(=O)O)c2)cc1Cl,IC50,[1],14.3 µM (active)
CCCCCCCCNC(=O)/C(C#N)=C/c1ccccc1[N+](=O)[O-],AC50,[2],1.98 µM (active)
same,AC50,[9],4.28 µM (active)
same,EC50,Protein RecA,3.79 µM (active)
same,IC50,Fatty acid synthase [10],8.41 µM (active)
same,IC50,Fatty acid synthase [11],5.82 µM (active)
CSc1ncc2c(n1)-c1cc(C)ccc1SC2,IC50,Estrogen receptor,> 50 µM (not active)
same,EC50,[12],0.135 µM (active)
same,EC50,[13],> 30 µM (not active)
O=C(Nc1ccc(Cl)c(S(=O)(=O)N2CCOCC2)c1)c1ccc2c(c1)OCCO2,AC50,[14],37.9 µM (active)
same,AC50,[15],38.9 µM (active)
COc1ccc(OC)c(NC(=O)c2cc(-c3ccc(C)cc3O)[nH]n2)c1,IC50,Estrogen receptor,22.1 µM (active)
Cn1cc(C(=O)NC2CCCCCC2)c(=O)c2cc(S(=O)(=O)N3CCCC3)ccc21,IC50,Estrogen receptor,> 50 µM (not active)
O=C1N=C(NNc2ccccc2)S/C1=C\c1ccccc1,IC50,[1],4.76 µM (not active)
Cc1noc(C)c1S(=O)(=O)N(C)C[C@@H]1Oc2ccc(NC(=O)Nc3cccc4ccccc34)cc2CC(=O)N([C@H](C)CO)C[C@@H]1C,AC50,[16],< 0.285 µM (active)
same,AC50,[17],< 0.285 µM (active)
same,AC50,[18],2.17 µM (active)
CCc1cnc(N2[C@@H](C#N)[C@H](c3ccc(C#Cc4ccccc4F)cc3)[C@@H]2CO)s1,AC50,[16],39.8 µM (active)
same,AC50,[17],5.29 µM (active)
same,AC50,[18],24.4 µM (active)
C[C@H]1CN([C@@H](C)CO)C(=O)c2cc(NC(=O)Nc3ccc4c(c3)OCO4)ccc2O[C@H]1CN(C)S(=O)(=O)c1ccc(Cl)cc1,AC50,[16],1.49 µM (active)
same,AC50,[17],5.25 µM (active)
same,AC50,[18],14.5 µM (active)

# — ChEMBL document CHEMBL1201862, “PubChem BioAssay data set” (2004)
